From patent US20150250786A1, “PYRIMIDINE HYDROXY AMIDE COMPOUNDS AS PROTEIN DEACETYLASE INHIBITORS AND METHODS OF USE THEREOF” (THE TRUSTEES OF THE UNIVERSITY OF PENNSYLVANIA, priority 2012, published 2015)

Tests used:
[1] = tested on: mice; assay: Elevated plus maze (EPM); type: in vivo, mouse; conditions: acute administration
[2] = target: HDAC2 (Homo sapiens, UniProt Q92769); assay: HDAC enzyme assay, HDAC2; conditions: selectivity HDAC6 over HDAC2
[3] = target: HDAC3 (Homo sapiens, UniProt O15379); assay: HDAC enzyme assay, HDAC3; conditions: selectivity HDAC6 over HDAC3
Sequence of HDAC3 (O15379 whole entry): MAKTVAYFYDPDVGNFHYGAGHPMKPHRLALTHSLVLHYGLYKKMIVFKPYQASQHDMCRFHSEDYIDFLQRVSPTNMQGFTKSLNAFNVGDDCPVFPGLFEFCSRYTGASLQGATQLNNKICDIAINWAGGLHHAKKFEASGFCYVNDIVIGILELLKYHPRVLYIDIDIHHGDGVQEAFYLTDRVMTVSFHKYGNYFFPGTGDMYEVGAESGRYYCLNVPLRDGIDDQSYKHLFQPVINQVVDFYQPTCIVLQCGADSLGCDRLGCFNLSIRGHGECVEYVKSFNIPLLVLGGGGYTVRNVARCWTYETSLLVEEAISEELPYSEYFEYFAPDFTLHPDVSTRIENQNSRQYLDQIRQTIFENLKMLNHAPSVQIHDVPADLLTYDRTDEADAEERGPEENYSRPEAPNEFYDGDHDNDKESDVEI
Sequence of HDAC3 (Q9Y618 395-489 partner limits assumed): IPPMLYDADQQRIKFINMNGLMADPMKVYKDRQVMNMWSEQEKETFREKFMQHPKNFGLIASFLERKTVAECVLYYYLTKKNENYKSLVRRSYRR

[4] = target: HDAC1 (Homo sapiens, UniProt Q13547); assay: HDAC enzyme assay, HDAC1; conditions: selectivity HDAC6 over HDAC1
Sequence of HDAC1 (Q13547 whole entry): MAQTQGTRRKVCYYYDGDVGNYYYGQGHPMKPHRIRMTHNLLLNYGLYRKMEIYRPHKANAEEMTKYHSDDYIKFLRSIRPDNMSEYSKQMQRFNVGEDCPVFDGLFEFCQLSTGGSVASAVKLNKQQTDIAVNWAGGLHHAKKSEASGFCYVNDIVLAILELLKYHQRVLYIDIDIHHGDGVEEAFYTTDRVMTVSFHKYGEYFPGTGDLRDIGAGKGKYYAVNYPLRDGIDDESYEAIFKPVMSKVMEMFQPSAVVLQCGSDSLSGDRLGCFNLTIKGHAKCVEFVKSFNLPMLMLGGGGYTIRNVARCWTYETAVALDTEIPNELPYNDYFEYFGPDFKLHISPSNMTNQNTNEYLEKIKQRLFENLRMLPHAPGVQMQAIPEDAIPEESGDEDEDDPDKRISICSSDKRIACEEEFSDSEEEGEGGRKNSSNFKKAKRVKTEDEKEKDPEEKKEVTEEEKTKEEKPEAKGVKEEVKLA

[5] = tested on: RN46A-B14 serotonergic cell line; assay: α-tubulin K40 acetylation in RN46A-B14 cells (Western blot); type: cell-based, rat; conditions: for acetylated (lysine 40) fraction of α-tubulin: 4 hours, TSA 0.6 μM, others 2.5 μM
Procedure: In FIG. 3, it was observed that subchronic treatment, consisting of 5 treatments at 48, 28, 24, 4 and ½ hours before sacrifice, led to greater increase in tubulin acetylation than did chronic treatment of 1 injection/day for 21 days. For cell culture, RN46B cells were treated for with 0.25, 2.5 or 25 μM drug in DMSO for 1, 4 or 24 hours as indicated. Tukey post-hoc analysis: * P=0.01 to 0.05, ** P=0.001-0.01, ***P<0.001 when compared with vehicle treatment.
Results are shown as percent change normalized to the vehicle treatment condition. The horizontal hard line depicts average and the dotted lines depict SEM of the vehicle treated wells. Representative Western blot images are presented. […] Representative Western blot images are presented. […] The drugs (5 mg/kg) were administered subchronically (at 24 h, 4 h and 30 min prior to sacrifice) to HDAC6 KO and WT littermates. The changes in tubulin acetylation were measured in tissue lysates from cortex (ctx), hippocampus (Hpc), dorsal Raphe nucleus (DRN) and cerebellum (cb). The tubulin acetylation levels in drug-treated mice are expressed as percent change of the vehicle-treated mice of the corresponding genotype. The horizontal lines depict the average tubulin acetylation±SEM in the vehicle treated mice. The representative Western blot images show the changes induced by each drug treatment in the hippocampus (left column) and dorsal raphe (right column) of WT and HDAC6 KO mice.
In contrast to the class I isoforms HDAC2 and 3, which are expressed highly and ubiquitously in the mouse brain, HDAC6 mRNA expression appears to be restricted to a small number of brain areas, with highest signal observed in DRN (FIG. 13f). […] No changes in total α-tubulin expression were detected (FIG. 14a).

[6] = tested on: RN46A-B14 serotonergic cell line; assay: Histone H3K9 acetylation in RN46A-B14 cells (Western blot); type: cell-based, rat; conditions: 4 hours
[7] = tested on: α-tubulin acetylation in mouse whole brain lysates; assay: α-tubulin acetylation in whole brain lysates after single i.p. administration; type: in vivo; conditions: compound 73 5 mg/kg, compound 101 50 mg/kg, tubastatin A 10 mg/kg, 30 min, 1 h, 4 h
[8] = tested on: mice; assay: Open-field test; type: in vivo, mouse; conditions: acute; compounds 73, 101 50 mg/kg; tubastatin A 10 mg/kg
[9] = tested on: α-tubulin acetylation in heart; assay: α-tubulin acetylation in heart after single systemic administration; type: in vivo, mouse; conditions: 10 mg/kg
Procedure: The changes were significant at 30 minutes (F3,13=163.4, P<0.0001), 1 hour (F3,13=163.9, P<0.0001) and 4 hours (F3,14=4.703, P=0.0179) after the administrations.

[10] = Pharmacokinetics and brain bio-distribution in mice; type: in vivo, mouse
Procedure: […] Plasma samples were taken from all mice upon sacrifice. Brain samples were taken from the mice sacrificed at 5 and 15 minutes and 1 and 4 hours. The brain samples were homogenized in PBS and centrifuged at 14000 rpm for 5 minutes. The supernatant from the brain homogenate and the plasma samples were injected onto a LC/MS/MS for analysis. The compound level in the samples was determined by a standard curve in the appropriate matrix. Pharmacokinetic parameters were determined from the raw data by WinNonLin.

[11] = tested on: mice; assay: Chronic social defeat (CSD) and social interaction test; type: in vivo, mouse; conditions: after CSD; fluoxetine 20 mg/kg, compound 73 5 mg/kg, compound 101 50 mg/kg
Procedure: Additionally, when combined with a dose of Citalopram with lower activity, these compounds seemed to have an additive effect (See FIG. 10). The dose of Citalopram chosen for this experiment was based on literature stating 2 mg/kg should be subactive, but this dose was found still showing an effect. Mice then underwent chronic social defeat stress, in which the mice are exposed to an aggressive resident mouse for 5 minutes daily for 10 days and are then tested on the 11th day in the social interaction test. Mice treated with vehicle for 20 total days, beginning 10 days before the defeat, show reduced time spent in the interaction zone when a target mouse is present when compared with control mice. […] The percent of mice found to be resilient, defined as spending more time in the interaction zone than the lowest control (i.e. ˜52 s), is higher in HDAC6 inhibitor groups. All behavior testing done using NIH Swiss mice, age 6-10 weeks. Tukey post-hoc analysis: * P=0.01 to 0.05, ** P=0.001-0.01, ***P<0.001 compared with vehicle treated mice.
The effects were observed 30 minutes after acute 50 mg/kg i.p. injection, but not for the lower dose (5 mg/kg). Combination of subactive doses of the HDAC6 selective inhibitors (5 mg/kg) and citalopram (0.5 mg/kg) produced robust potentiation of anti-immobility activity (n=8-29 per condition). […] No difference was observed between HDAC6 WT and KO when treated with the vehicle (n=6-15 per condition). FIG. 16c is a timeline showing treatment period, social defeat and social interaction (SI) testing.
A pro-resilient phenotype in the mouse CSD paradigm after serotonin-selective KO of HDAC6 was previously reported (Espallergues et al, 2012). Whether a chronic pharmacological inhibition of HDAC6 can replicate that phenotype is studied. […] On day 21, 24 h after the last injection, the mice were tested in the social interaction test. […] Significant effects were also observed when data was evaluated in terms of proportion of mice reaching criterion for resiliency.

[12] = tested on: histone H3 lysine 9 acetylation; assay: Histone H3K9 acetylation in vivo (Western blot, ChIP); parameters: species or system mouse; conditions: hippocampus; repeated i.p.; compound 73 5 mg/kg, sodium butyrate 1.2 g/kg

Sequence of HDAC2 (Q92769 whole entry): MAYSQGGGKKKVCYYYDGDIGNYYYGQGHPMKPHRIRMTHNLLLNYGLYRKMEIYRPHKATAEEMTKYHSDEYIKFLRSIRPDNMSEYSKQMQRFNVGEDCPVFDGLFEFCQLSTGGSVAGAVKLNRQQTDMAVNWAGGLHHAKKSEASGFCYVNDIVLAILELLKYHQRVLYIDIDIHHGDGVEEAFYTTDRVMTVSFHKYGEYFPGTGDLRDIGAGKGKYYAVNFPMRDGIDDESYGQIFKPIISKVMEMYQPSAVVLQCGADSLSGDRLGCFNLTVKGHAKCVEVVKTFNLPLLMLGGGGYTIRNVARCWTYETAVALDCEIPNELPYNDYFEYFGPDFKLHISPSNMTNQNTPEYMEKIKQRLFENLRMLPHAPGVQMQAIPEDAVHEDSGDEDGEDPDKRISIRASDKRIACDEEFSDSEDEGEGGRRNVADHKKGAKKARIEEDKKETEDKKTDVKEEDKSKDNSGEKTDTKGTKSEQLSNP

Row | SMILES | HDAC2 fold versus HDAC6 (in brackets) [2] | HDAC3 fold versus HDAC6 (in brackets) [3] | HDAC1 fold versus HDAC6 (in brackets) [4] | other results
1 | CNC1=Nc2ccc(Cl)cc2C(c2ccccc2)=[N+]([O-])C1 [CDP, reference compound] |  |  |  | behavioral changes / time in the open arms of the maze [1]: dramatically increased
2 | O=C(NO)c1cnc(NC2(c3ccc(F)cc3)CC2)nc1 [Compound 81] | (30.2x) | (46.4x) | (18.3x) | 
3 | O=C(NO)c1cnc(NC2(c3ccccc3)CCCCC2)nc1 [Compound 84] | (403.4x) | (613x) | (302.2x) | 
4 | O=C(NO)c1cnc(NC2(c3ccccc3)CCCC2)nc1 [Compound 88] | (296.1x) | (679.1x) | (215.2x) | 
5 | O=C(NO)c1cnc(NC2(c3ccccc3Cl)CC2)nc1 [Compound 90] | (26.2x) | (30.2x) | (19.9x) | 
6 | O=C(NO)c1cnc(NC2(c3ccccc3C(F)(F)F)CC2)nc1 [Compound 91] | (130.2x) | (169.4x) | (72.3x) | 
7 | Cc1ccc(C2(Nc3ncc(C(=O)NO)cn3)CC2)cc1 [Compound 93] | (34.7x) | (51x) | (25.9x) | 
8 | COc1ccc(C2(Nc3ncc(C(=O)NO)cn3)CC2)cc1 [Compound 97] | (12.1x) | (16.4x) | (8.3x) | 
9 | O=C(NO)c1cnc(NC2(c3ccc(F)cc3)CCCCC2)nc1 [Compound 100] | (504.7x) | (1428.4x) | (339.9x) | 
10 | CC(/C=C/C(=O)NO)=C\[C@@H](C)C(=O)c1ccc(N(C)C)cc1 [TSA, trichostatin A, reference compound] |  |  |  | acetylated (lysine 40) fraction of α-tubulin [5]: increases; increase in acetylation of histone H3 at lysine 9 ([6]; TSA 0.6 μM): 94%
11 | CN1CCc2c(c3ccccc3n2Cc2ccc(C(=O)NO)cc2)C1 [Tubastatin A, reference compound] |  |  |  | increase in α-tubulin acetylation in tissue culture [5]: about 400%; acetylated (lysine 40) fraction of α-tubulin [5]: increases; α-tubulin acetylation in whole brain lysates [7]: did not significantly change; exploratory activity in novel open-field arena [8]: did not exhibit changes; increase of α-tubulin acetylation in heart [9]: 268%; 30 min plasma concentration (ng/ml) - 5 mg/kg ([10]; 5 mg/kg): 278 ng/mL; Cmax ([10]; mice, acute i.p. dosing): 496 ng/mL; T½ plasma ([10]; mice, acute i.p. dosing): 2 h; plasmatic half-life ([10]; mouse, in vivo): 2 h; change in histone H3K9 acetylation ([6]; 2.5 μM): no significant change
12 | CNCCC(Oc1ccc(C(F)(F)F)cc1)c1ccccc1 (stereo not drawn) [fluoxetine, reference compound] |  |  |  | percentage of resilient mice [11]: 60%
13 | CCCC(=O)[O-].[Na+] [sodium butyrate, reference compound] |  |  |  | histone H3K9 acetylation enrichment at promoter DNA (cFOS, BDNF promoter 4), ChIP [12]: increases in enrichment
